The test concerns the target T1, Klenow exo- with template-primer (Escherichia coli, UniProt P00582, D355A/E357A).
T1 construct: purchased New England Biolabs
In kind it is binding. The note with it: for signal +polymerase + DUpNHPP: 0.3 uM Dye-DUTP conjugate, buffer background subtracted. As for the experimental part:
(1) Dideoxy terminated primer and template were mixed at a ratio of 2:1 (final template concentrations were varied as shown)
(2) DGTP DCTP and DATP was added to a final concentration of 1 mM.
(3) 0.3 uM of Intercalator-Dye-DUTP conjugate was added to the system.
(4) In some samples non-incorporable DUTP (DUPNHPP) was added as shown.
(5) 300 nM Klenow exo- was added
(6) The system was heated to at 37° C.
Where the intercalating dye is conjugated to DNPNHPP or other nonincorporable entities, then the dideoxy terminated primer is unnecessary and will allow sequential sequencing if a limited concentration of native bases are added.
Buffer background subtracted.

From patent US8399196B2, “Nucleic acid sequencing methods, kits and reagents” (GeneForm Technologies Limited, priority 2003, dated 2013) come the findings set out here.

Read-outs that look alike come from different tables or passages of the source.

T1 sequence (P00582 324-928 D355A/E357A): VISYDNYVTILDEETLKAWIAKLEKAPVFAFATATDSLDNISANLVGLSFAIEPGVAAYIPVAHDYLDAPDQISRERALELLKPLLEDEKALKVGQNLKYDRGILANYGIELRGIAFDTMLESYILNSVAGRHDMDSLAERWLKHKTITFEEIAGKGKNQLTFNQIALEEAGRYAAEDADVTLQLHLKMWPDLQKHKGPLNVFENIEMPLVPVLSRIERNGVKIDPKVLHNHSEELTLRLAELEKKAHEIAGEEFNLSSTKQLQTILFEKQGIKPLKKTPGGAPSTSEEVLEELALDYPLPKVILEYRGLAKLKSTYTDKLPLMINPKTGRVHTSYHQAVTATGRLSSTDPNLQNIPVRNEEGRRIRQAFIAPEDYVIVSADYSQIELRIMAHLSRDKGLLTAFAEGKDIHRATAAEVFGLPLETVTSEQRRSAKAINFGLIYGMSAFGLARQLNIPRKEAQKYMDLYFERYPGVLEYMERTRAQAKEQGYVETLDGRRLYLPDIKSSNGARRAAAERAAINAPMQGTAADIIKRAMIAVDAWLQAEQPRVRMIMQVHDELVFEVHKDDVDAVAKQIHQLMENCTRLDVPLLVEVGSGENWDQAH

Turning to `O=c1ccn([C@H]2CC(O)[C@@H](COP(=O)(O)NP(=O)(O)OP(=O)(O)O)O2)c(=O)[nH]1` (stereo partly shown) [DUPNHPP], the “signal, T-P + Dye-DUTP + Primer1 + DUPNHPP” value (DUPNHPP added in competition with 0.3 uM Dye-DUTP, DUPNHPP concentration not given) is 320. In addition, the “signal +polymerase + DUpNHPP” value is, setting by setting: (Template-primer-a 0.015625 uM) 55; (Template-primer-a 0.03125 uM) 114; (Template-primer-a 0.0625 uM) 234; (Template-primer-a 0.125 uM) 438; (Template-primer-a 0.25 uM) 916; (Template-primer-a 0.5 uM) 1802.
